From patent US20150141381A1, “TETRACYCLINE COMPOUNDS HAVING TARGET THERAPEUTIC ACTIVITIES” (Paratek Pharmaceuticals, Inc., priority 2001, published 2015)
Like-named read-outs stand apart in the source and are kept apart here.

Tests used:
S. aureus RN450 = experiment: In Vitro Anti-Bacterial Activity Assay (MIC), gram positive; assay type: cell-based; conditions: for MIC: Staphylococcus aureus, RN450, 18 h
E. coli mL308 225 = experiment: In Vitro Anti-Bacterial Activity Assay (MIC), gram negative; assay type: cell-based; conditions: for MIC: Escherichia coli, ML308225, 18 h
[1] = gram positive bacteria, read-out: Antibiotic Activity Gram + (MIC)
[2] = gram negative bacteria, read-out: Antibiotic Activity Gram − (MIC)
[3] = MIC class, Table 3, read-out: Antibiotic Activity Gram +
[4] = MIC class, Table 3, read-out: Antibiotic Activity Gram −
[5] = MIC class, Table 3 (Continued), read-out: Gram+ activity
[6] = MIC class, Table 3 (Continued), read-out: Gram− activity

CN(C)c1cc(CNCCC(F)(F)F)c(O)c2c1C[C@H]1C[C@H]3[C@H](N(C)C)C(O)=C(C(N)=O)C(=O)[C@@]3(O)C(O)=C1C2=O [drawing 3690]
Antibiotic Activity Gram + (MIC) (S. aureus RN450; gram positive bacteria): ** (compounds with MIC less than or equal to 4 μg/ml are indicated with **)
Antibiotic Activity Gram − (MIC) (E. coli mL308 225; gram negative bacteria): ** (compounds with MIC less than or equal to 4 μg/ml are indicated with **)

CN(C)c1cc(NCc2ccc([N+](=O)[O-])o2)c(O)c2c1C[C@H]1C[C@H]3[C@H](N(C)C)C(O)=C(C(N)=O)C(=O)[C@@]3(O)C(O)=C1C2=O
MIC (S. aureus RN450; [1]): < 4 µg/mL
MIC (E. coli mL308 225; [2]): > 4 µg/mL

CN(C)[C@H]1C(O)=C(C(N)=O)C(=O)[C@@]2(O)C(O)=C3C(=O)c4c(O)ccc(-c5cccc(N)c5)c4C[C@H]3C[C@@H]12 [AM]
MIC (S. aureus RN450; [3]): < 4 µg/mL
MIC (E. coli mL308 225; [4]): < 4 µg/mL

CO/N=C/c1cc(-c2ccc(O)c3c2C[C@H]2C[C@H]4[C@H](N(C)C)C(O)=C(C(N)=O)C(=O)[C@@]4(O)C(O)=C2C3=O)ccc1OC [HV]
MIC (S. aureus RN450; [3]): < 4 µg/mL
MIC (E. coli mL308 225; [4]): > 4 µg/mL

CCNc1ccc(-c2ccc(O)c3c2C[C@H]2C[C@H]4[C@H](N(C)C)C(O)=C(C(N)=O)C(=O)[C@@]4(O)C(O)=C2C3=O)cc1
MIC (S. aureus RN450; [5]): < 4 µg/mL
MIC (E. coli mL308 225; [6]): < 4 µg/mL

CC(=O)c1ccc(-c2ccc(O)c3c2C[C@H]2C[C@H]4[C@H](N(C)C)C(O)=C(C(N)=O)C(=O)[C@@]4(O)C(O)=C2C3=O)cc1
MIC (S. aureus RN450; [5]): < 4 µg/mL
MIC (E. coli mL308 225; [6]): < 4 µg/mL

CN(C)CC(=O)Nc1ccc(C#Cc2ccc(O)c3c2C[C@H]2C[C@H]4[C@H](N(C)C)C(O)=C(C(N)=O)C(=O)[C@@]4(O)C(O)=C2C3=O)cc1 [BM]
MIC (S. aureus RN450; [3]): < 4 µg/mL
MIC (E. coli mL308 225; [4]): < 4 µg/mL

COc1ccc(CNC2CCCCC2)cc1-c1ccc(O)c2c1C[C@H]1C[C@H]3[C@H](N(C)C)C(O)=C(C(N)=O)C(=O)[C@@]3(O)C(O)=C1C2=O [I]
MIC (S. aureus RN450; [3]): < 4 µg/mL
MIC (E. coli mL308 225; [4]): < 4 µg/mL

CCc1cc(CNC(=O)CN(C)C)c(O)c2c1C[C@H]1C[C@H]3[C@@H](N(C)C)C(O)=C(C(N)=O)C(=O)[C@@]3(O)C(O)=C1C2=O [JL]
MIC (S. aureus RN450; [3]): < 4 µg/mL
MIC (E. coli mL308 225; [4]): > 4 µg/mL

CC(C)CNCc1cc(N(C)C)c2c(c1O)C(=O)C1=C(O)[C@]3(O)C(=O)C(C(N)=O)=C(O)[C@@H](N(C)C)[C@@H]3C[C@@H]1C2 [drawing 3497]
Antibiotic Activity Gram + (MIC) (S. aureus RN450; gram positive bacteria): ** (compounds with MIC less than or equal to 4 μg/ml are indicated with **)
Antibiotic Activity Gram − (MIC) (E. coli mL308 225; gram negative bacteria): * (compounds with an MIC of greater than 4 μg/ml are indicated with *)

CCc1cc(C(C)(C)C)c(O)c2c1C[C@H]1C[C@H]3[C@H](N(C)C)C(O)=C(C(=O)NC(C)(C)C)C(=O)[C@@]3(O)C(O)=C1C2=O
MIC (S. aureus RN450; [1]): < 4 µg/mL
MIC (E. coli mL308 225; [2]): > 4 µg/mL

CC(C)CNCc1ccc(O)c2c1C[C@H]1C[C@H]3C(N(C)C)C(O)=C(C(N)=O)C(=O)[C@@]3(O)C(O)=C1C2=O (stereo partly shown) [NF]
MIC (S. aureus RN450; [3]): < 4 µg/mL
MIC (E. coli mL308 225; [4]): < 4 µg/mL

CN(C)[C@@H]1C(O)=C(C(N)=O)C(=O)[C@@]2(O)C(O)=C3C(=O)c4c(O)c(I)cc(CN)c4C[C@H]3C[C@@H]12 [FV]
MIC (S. aureus RN450; [3]): > 4 µg/mL
MIC (E. coli mL308 225; [4]): > 4 µg/mL

C[C@H]1c2cccc(O)c2C(=O)C2=C(O)[C@]3(O)C(=O)C(C(N)=O)=C(O)[C@@H](N(C)C)[C@@H]3[C@@H](O)[C@@H]21 [drawing 3660]
MIC (S. aureus RN450; [1]): < 4 µg/mL
MIC (E. coli mL308 225; [2]): > 4 µg/mL

CN(C)c1cc(CN2CCCCC2)c(O)c2c1C[C@H]1C[C@H]3C(N(C)C)C(O)=C(C(N)=O)C(=O)[C@@]3(O)C(O)=C1C2=O (stereo partly shown)
MIC (S. aureus RN450; [5]): < 4 µg/mL
MIC (E. coli mL308 225; [6]): > 4 µg/mL

CN(C)c1cc(CNCC23CC4CC(CC(C4)C2)C3)c(O)c2c1C[C@H]1C[C@H]3[C@H](N(C)C)C(O)=C(C(N)=O)C(=O)[C@@]3(O)C(O)=C1C2=O
MIC (S. aureus RN450; [1]): < 4 µg/mL
MIC (E. coli mL308 225; [2]): < 4 µg/mL

CCOc1ccccc1-c1ccc(O)c2c1C[C@H]1C[C@H]3[C@H](N(C)C)C(O)=C(C(N)=O)C(=O)[C@@]3(O)C(O)=C1C2=O [AG]
MIC (S. aureus RN450; [3]): < 4 µg/mL
MIC (E. coli mL308 225; [4]): > 4 µg/mL

CN(C)CC#Cc1cc(C(C)(C)C)c(O)c2c1C[C@H]1C[C@H]3[C@H](N(C)C)C(O)=C(C(N)=O)C(=O)[C@@]3(O)C(O)=C1C2=O [GD]
MIC (S. aureus RN450; [3]): < 4 µg/mL
MIC (E. coli mL308 225; [4]): > 4 µg/mL

Cc1ccsc1/C=C/c1ccc(O)c2c1C[C@H]1C[C@H]3[C@H](N(C)C)C(O)=C(C(N)=O)C(=O)[C@@]3(O)C(O)=C1C2=O
MIC (S. aureus RN450; [5]): < 4 µg/mL
MIC (E. coli mL308 225; [6]): < 4 µg/mL

CCCCOc1ccc(I)c2c1C(=O)C1=C(O)[C@]3(O)C(=O)C(C(N)=O)=C(O)[C@@H](N(C)C)[C@@H]3C[C@@H]1C2 [OS]
MIC (S. aureus RN450; [3]): > 4 µg/mL
MIC (E. coli mL308 225; [4]): > 4 µg/mL

CN(C)[C@@H]1C(O)=C(C(N)=O)C(=O)[C@@]2(O)C(O)=C3C(=O)c4c(O)ccc(-c5ccc(CNc6cccnc6)cc5)c4C[C@H]3C[C@@H]12
MIC (S. aureus RN450; [1]): < 4 µg/mL
MIC (E. coli mL308 225; [2]): > 4 µg/mL

CN(C)c1cc(CNC(=O)c2ccno2)c(O)c2c1C[C@H]1C[C@H]3C(N(C)C)C(O)=C(C(N)=O)C(=O)[C@@]3(O)C(O)=C1C2=O (stereo partly shown) [MB]
MIC (S. aureus RN450; [3]): < 4 µg/mL
MIC (E. coli mL308 225; [4]): > 4 µg/mL

CN(C)[C@@H]1C(O)=C(C(N)=O)C(=O)[C@@]2(O)C(O)=C3C(=O)c4c(O)ccc(C#CCCCC#N)c4C[C@H]3C[C@@H]12 [BB]
MIC (S. aureus RN450; [3]): < 4 µg/mL
MIC (E. coli mL308 225; [4]): < 4 µg/mL

COc1ccc(-c2ccc(O)c3c2C[C@H]2C[C@H]4[C@H](N(C)C)C(O)=C(C(N)=O)C(=O)[C@@]4(O)C(O)=C2C3=O)cc1CN(C)C [IT]
MIC (S. aureus RN450; [3]): < 4 µg/mL
MIC (E. coli mL308 225; [4]): < 4 µg/mL

CCOC(=O)/C=C/c1cc(N(C)C)c2c(c1O)C(=O)C1=C(O)[C@]3(O)C(=O)C(C(N)=O)=C(O)[C@@H](N(C)C)[C@@H]3C[C@@H]1C2
MIC (S. aureus RN450; [1]): < 4 µg/mL
MIC (E. coli mL308 225; [2]): > 4 µg/mL

CCC1(C)CCN(Cc2cc(N(C)C)c3c(c2O)C(=O)C2=C(O)[C@]4(O)C(=O)C(C(N)=O)=C(O)[C@@H](N(C)C)[C@@H]4C[C@@H]2C3)CC1
MIC (S. aureus RN450; [1]): < 4 µg/mL
MIC (E. coli mL308 225; [2]): < 4 µg/mL

Cc1cnc(N)n1Cc1cc(N(C)C)c2c(c1O)C(=O)C1=C(O)[C@]3(O)C(=O)C(C(N)=O)=C(O)[C@@H](N(C)C)[C@@H]3C[C@@H]1C2 [drawing 3711]
MIC (S. aureus RN450; [1]): < 4 µg/mL
MIC (E. coli mL308 225; [2]): > 4 µg/mL

CN(C)c1cc(NCc2ccc(C#N)cc2)c(O)c2c1C[C@H]1C[C@H]3[C@H](N(C)C)C(O)=C(C(N)=O)C(=O)[C@@]3(O)C(O)=C1C2=O
MIC (S. aureus RN450; [1]): > 4 µg/mL
MIC (E. coli mL308 225; [2]): > 4 µg/mL

CN(C)[C@@H]1C(O)=C(C(N)=O)C(=O)[C@@]2(O)C(O)=C3C(=O)c4c(O)ccc(C#CCCC#Cc5ccc(O)c6c5C[C@H]5C[C@H]7[C@H](N(C)C)C(O)=C(C(N)=O)C(=O)[C@@]7(O)C(O)=C5C6=O)c4C[C@H]3C[C@@H]12 [FM]
MIC (S. aureus RN450; [3]): > 4 µg/mL
MIC (E. coli mL308 225; [4]): > 4 µg/mL

CCCOc1cccc2c1C(=O)C1=C(O)[C@]3(O)C(=O)C(C(N)=O)=C(O)[C@@H](N(C)C)[C@@H]3C[C@@H]1C2 [drawing 3586]
Antibiotic Activity Gram + (MIC) (S. aureus RN450; gram positive bacteria): * (compounds with an MIC of greater than 4 μg/ml are indicated with *)
Antibiotic Activity Gram − (MIC) (E. coli mL308 225; gram negative bacteria): * (compounds with an MIC of greater than 4 μg/ml are indicated with *)

CC(=O)c1cc(C(C)=O)c2c(c1O)C(=O)C1=C(O)[C@]3(O)C(=O)C(C(N)=O)=C(O)[C@@H](N(C)C)[C@@H]3C[C@@H]1C2 [EB]
MIC (S. aureus RN450; [3]): < 4 µg/mL
MIC (E. coli mL308 225; [4]): > 4 µg/mL

CN(C)[C@@H]1C(O)=C(C(N)=O)C(=O)[C@@]2(O)C(O)=C3C(=O)c4c(O)ccc(NC5CCN(Cc6ccccc6)CC5)c4C[C@H]3C[C@@H]12 [JN]
MIC (S. aureus RN450; [3]): < 4 µg/mL
MIC (E. coli mL308 225; [4]): < 4 µg/mL
